Mutagenic call and call data for 9 molecules are collected here from PubChem BioAssay AID1259408 (Genetic Toxicology Data Bank (GENE-TOX), 2018).

The structures appear in SMILES notation. Calls of active or inactive are those of the source. How the calls were made is not given here.

The test system of the series is GENE-TOX genotoxicity assays, various organisms and cells. Kind of series: GENE-TOX mutagenicity studies. As to conditions: for call: Assay Type: In vivo carcinogenicity studies.
Setting [1] is: Species/Cell Type: Chinese hamster ovary (CHO) cells, Assay Type: Forward gene mutation at the HPRT locus, Assay Code: CHO+, Evaluation Type: Evaluation B (Post-1980).
Setting [2] is: Species/Cell Type: Allium cepa, Assay Type: Chromosome aberrations, Assay Code: ALC+, Evaluation Type: Evaluation A (Pre-1980).

In the case of `COc1ccc2c(c1)c(CC(=O)O)c(C)n2C(=O)c1ccc(Cl)cc1`, the mutagenic call runs as follows: (Species/Cell Type: Human lymphocytes, Assay Type: Sister-chromatid exchange (SCE) in vivo, Assay Code: SCY+, Evaluation Type: Evaluation B (Post-1980)) “active; positive”; (Species/Cell Type: Human, Assay Type: Sister-chromatid exchange (SCE) in vitro, Assay Code: SC1T, Evaluation Type: Evaluation B (Post-1980)) “no conclusion”; (Species/Cell Type: Mammalian polychromatic erythrocytes, Assay Type: Micronucleus test, chromosome aberrations, Assay Code: MNT+, Evaluation Type: Evaluation B (Post-1980)) “active; positive”; (Species/Cell Type: Nonhuman, Assay Type: Sister-chromatid exchange (SCE) in vitro, Assay Code: SC2T, Evaluation Type: Evaluation B (Post-1980)) “no conclusion”.
Turning to `O=Nc1ccc2ccc3cccc4ccc1c2c34`, under setting [1], the mutagenic call was “active; positive”.
On to `O=P(O)(O)O`, for which the mutagenic call (Species/Cell Type: Syrian hamster embryo (SA7/SHE) cells, Assay Type: Cell transformation, viral enhanced, Assay Code: CT7-, Evaluation Type: Evaluation A (Pre-1980)) is “inactive; negative”.
On to `NC(=O)C(=Cc1ccc([N+](=O)[O-])o1)c1ccccc1`, for which the mutagenic call (Species/Cell Type: Salmonella typhimurium (one or more of the five standard strains: TA98, TA100, TA1535, TA1537, and TA1538), Assay Type: Histidine reverse gene mutation, Ames assay, Assay Code: SAL+, Evaluation Type: Evaluation A (Pre-1980)) was “active; positive”.
As to `CC(C)[C@@](O)(C(=O)OCC1=CCN2CCC[C@@H]12)[C@@H](C)O`, the mutagenic call is “active; positive” under setting [2] and “active; positive” (Species/Cell Type: Drosophila melanogaster, Assay Type: Sex-linked recessive lethal gene mutation, Assay Code: SRL+, Evaluation Type: Evaluation A (Pre-1980)).
Take `c1ccc2c(c1)ccc1ccccc12`: the mutagenic call under setting [2] was “active; positive”; the mutagenic call (Species/Cell Type: Escherichia coli polA (W3110 vs P3478), Assay Type: Rec-assay, DNA effects (bacterial DNA repair), Assay Code: RE2-, Evaluation Type: Evaluation A (Pre-1980)) was “inactive; negative”; the mutagenic call (Species/Cell Type: Escherichia coli polA (W3119 vs P3478), Assay Type: Rec-assay, DNA effects (bacterial DNA repair), Assay Code: RE1T, Evaluation Type: Evaluation A (Pre-1980)) is “no conclusion”; the mutagenic call (Species/Cell Type: Fischer rat embryo (RLV/1706) cells, Assay Type: Cell transformation, viral enhanced, Assay Code: CTRT, Evaluation Type: Evaluation A (Pre-1980)) is “no conclusion”; the mutagenic call (Species/Cell Type: Human diploid fibroblasts, Assay Type: Unscheduled DNA synthesis (UDS) in vitro, DNA effects, Assay Code: UDH-, Evaluation Type: Evaluation A (Pre-1980)) is “inactive; negative”; the mutagenic call (Species/Cell Type: Mammalian polychromatic erythrocytes, Assay Type: Micronucleus test, chromosome aberrations, Assay Code: MNTT, Evaluation Type: Evaluation A (Pre-1980)) was “no conclusion”. For the same molecule, the mutagenic call (Species/Cell Type: Mouse (BALB/c-3T3) cells, Assay Type: Cell transformation, Assay Code: CTB-, Evaluation Type: Evaluation A (Pre-1980)) was “inactive; negative”; the mutagenic call (Species/Cell Type: Mouse embryo (AKR/ME) cells, Assay Type: Cell transformation, Assay Code: CTK+, Evaluation Type: Evaluation A (Pre-1980)) is “active; positive”; the mutagenic call (Species/Cell Type: Mouse prostate cells, Assay Type: Cell transformation, Assay Code: CTM-, Evaluation Type: Evaluation A (Pre-1980)) is “inactive; negative”; the mutagenic call (Species/Cell Type: Nonhuman, Assay Type: Chromosome aberrations in vitro, Assay Code: CY&-, Evaluation Type: Evaluation A (Pre-1980)) is “inactive; negative”; the mutagenic call (Species/Cell Type: Nonhuman, Assay Type: Sister-chromatid exchange (SCE) in vitro, Assay Code: SC2-, Evaluation Type: Evaluation A (Pre-1980)) is “inactive; negative”; the mutagenic call (Species/Cell Type: Nonhuman, Assay Type: Sister-chromatid exchange (SCE) in vivo, Assay Code: SC3+, Evaluation Type: Evaluation B (Post-1980)) was “active; positive”. In addition, the mutagenic call is “no conclusion” (Species/Cell Type: Nonhuman, Assay Type: Sister-chromatid exchange (SCE) in vivo, Assay Code: SC3T, Evaluation Type: Evaluation A (Pre-1980)); “inactive; negative” (Species/Cell Type: Saccharomyces cerevisiae, Assay Type: Mitotic recombination or gene conversion, Assay Code: YEH-, Evaluation Type: Evaluation A (Pre-1980)); “inactive; negative” (Species/Cell Type: Salmonella typhimurium (one or more of the five standard strains: TA98, TA100, TA1535, TA1537, and TA1538), Assay Type: Histidine reverse gene mutation, Ames assay, Assay Code: SAL-, Evaluation Type: Evaluation A (Pre-1980)); “inactive; negative” (Species/Cell Type: Salmonella typhimurium, Assay Type: Forward and reverse gene mutation, host-mediated assay, Assay Code: HMA-, Evaluation Type: Evaluation A (Pre-1980)); “inactive; negative” (Species/Cell Type: Syrian hamster embryo (SHE) cells, Assay Type: Cell transformation, clonal assay, Assay Code: CTC-, Evaluation Type: Evaluation A (Pre-1980)). The call (Species/Cell Type: Nonhuman, Assay Code: CCGT, Evaluation Type: Evaluation A (Pre-1980)) is “no conclusion”.
`Cc1cc(Cl)ccc1N`: the call (Species/Cell Type: Nonhuman, Assay Code: CCG+, Evaluation Type: Evaluation A (Pre-1980)) is “active; positive”.
`CO[C@@H]1[C@H](C)O[C@@H](O[C@@H]2C[C@H](Oc3cc(O)c4c(O)c5c(cc4c3)C[C@@H]([C@H](OC)C(=O)[C@@H](O)[C@@H](C)O)[C@H](O[C@@H]3C[C@H](OC4C[C@H](O)[C@@H](O)[C@H](C)O4)[C@@H](O)[C@H](C)O3)C5=O)O[C@H](C)[C@@H]2O)C[C@@H]1O` (stereo not given in full): the mutagenic call under setting [1] was “active; positive”.
As for `O=NN(CCCCO)c1ccccc1`, the mutagenic call (Species/Cell Type: Salmonella typhimurium (one or more of the five standard strains: TA98, TA100, TA1535, TA1537, and TA1538), Assay Type: Histidine reverse gene mutation, Ames assay, Assay Code: SALT, Evaluation Type: Evaluation A (Pre-1980)) is recorded as “no conclusion”.
